Results from patent publication US20050222147A1, “Process for the preparation of morpholine derivatives and intermediates therefore” (priority 2000, published 2005).
Where a name gives a salt, the structure may show the parent alone.

How the values were obtained:
eosinophil chemotaxis = assay: Eosinophil chemotaxis assay (eotaxin-induced); type: cell-based, human; settings: functional pKi (fpKi)
Experimental: (b) Eosinophil Chemotaxis Assay.
Compounds were evaluated for their inhibitory effect on eosinophil chemotaxis. Eosinophils were purified from human peripheral blood by standard CD16 cell depletion using a Miltenyi cell separation column and a magnetic Super Macs magnet as previously described (Motegi & Kita, 1998; J. Immunology. 161:4340-6). Cells were re-suspended in RPMI 1640/10% FCS solution and incubated with calcein-AM (Molecular Probes) at 37° C. for 30 mins. Following incubation, the eosinophils were centrifuged at 400 g for 5 min and re-suspended in RPMI/FCS at 2.2 million/ml. Cells. were then incubated in the presence of increasing concentration of compounds (1 pM to 30 μM) at 37° C. for 30 mins. For control responses cells were incubated with RPMI/FCS only. The agonist eotaxin (either a concentration response curve or for the functional inhibition curves an EC80 concentration) was added to the lower chamber of a 96 well chemotaxis plate (5 μm filter: Receptor Technologies). Eosinophils (50 μl of 2 million/ml cells) were added to the top chamber of the filter plate and incubated at 37° C. for 45 mins. Cells remaining on top of the chemotaxis filter were removed and the number of eosinophils which had migrated were quantified by reading the plate on a fluorescent plate reader. Inhibition curves for the effect of compounds on eosinophil chemotaxis were analysed by fitting the data with a four parameter logistic equation. Functional pK1 values (fpK1) were generated using the equation below (Lazareno & Birdsall, 1995. Br. J. Pharmacol 109: 1110-9). [formula] (c) Guinea-pig Ovalbumin Model

CCR-3 = biological target: T1, CCR-3 (Homo sapiens, UniProt P51677); assay: CCR-3 competition binding SPA (scintillation proximity assay); settings: read-out: CCR-3 Binding Assay (pIC50) (converted)
T1 construct: expressed in transfected cells
T1 sequence (P51677 1-355): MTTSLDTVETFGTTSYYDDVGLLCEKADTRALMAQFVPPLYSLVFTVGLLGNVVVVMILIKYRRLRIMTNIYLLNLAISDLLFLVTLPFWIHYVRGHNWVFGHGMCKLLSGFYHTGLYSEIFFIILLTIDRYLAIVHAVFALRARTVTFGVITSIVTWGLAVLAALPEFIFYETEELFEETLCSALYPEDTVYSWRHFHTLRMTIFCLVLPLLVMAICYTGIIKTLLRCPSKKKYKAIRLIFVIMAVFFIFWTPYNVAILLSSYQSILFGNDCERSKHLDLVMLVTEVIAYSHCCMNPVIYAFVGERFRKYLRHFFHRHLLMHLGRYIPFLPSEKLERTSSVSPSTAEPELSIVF
Experimental: A CCR-3 competition binding SPA (scintillation proximity assay) was used to assess the affinity of novel compounds for CCR-3. Membranes prepared from K562 cells stably expressing CCR-3 (2.51 μg/well) were mixed with 0.25 mg/well wheat-germ agglutinin SPA beads (Amersham) and incubated in binding buffer (HEPES 50 mM, CaCl2 1 mM, MgCl2 5 mM, 0.5% BSA) at 4° C. for 1.5 hr. Following incubation, 20 pM of [^125I) eotaxin (Amersham) and increasing concentrations of compound (1 pM to 30 μM) were added and incubated in a 96 well plate for 2 hr at 22° C. then counted on a Microbeta plate counter. The total assay volume was 100 μl. Competition binding data were analysed by fitting the data with a four parameter logistic equation. Data are presented as the mean pIC50 values (negative logarithm of the concentration of compound which inhibits [^125I] eotaxin binding by 50%) from at least two experiments.

SMILES | CCR-3 Eosinophil Chemotaxis Assay (fpKi) (eosinophil chemotaxis) | IC50 (CCR-3)
CN(C)c1ccc(CC(=O)NCC2CN(Cc3ccc(Cl)c(Cl)c3)CCO2)cc1.O=CO (stereo not drawn) [Example 12, N-{[4-(3,4-Dichlorobenzyl)morpholin-2-yl]methyl}-2-[4-(dimethylamino)phenyl]acetamide salt with formic acid (1:1)] | 6.82 | –
CS(=O)(=O)Nc1ccc(CC(=O)NCC2CN(Cc3ccc(F)c(F)c3)CCO2)cc1 (stereo not drawn) [Example 45] | – | 0.0132 µM
O=C(Cc1csc(-c2cnccn2)n1)NC[C@H]1CN(Cc2ccc(Cl)c(Cl)c2)CCO1 [Example 42, N-([(2S)-4-(3,4-Dichlorobenzyl)morpholin-2-yl]methyl}-2-(2-pyrazin-2-yl-1,3-thiazol-4-yl)acetamide] | 9.32 | –
CS(=O)(=O)Nc1ccc(CC(=O)NC[C@H]2CN(Cc3ccc(F)cc3)CCO2)cc1 [Example 46, N-{[(2S)-4-(4-Fluorobenzyl)morpholin-2-yl]methyl}-2-{4-[(methylsulfonyl)amino]phenyl}acetamide] | – | 0.0724 µM
O=C(Cc1cc(C(F)(F)F)cc(C(F)(F)F)c1)NCC1CN(Cc2ccc(Cl)c(Cl)c2)CCO1 (stereo not drawn) [Example 17, 2-[3,5-Bis(trifluoromethyl)phenyl]-N-{[4-(3,4-dichlorobenzyl)morpholin-2-yl]methyl}acetamide] | 6.24 | –
O=C(Cc1cccc(C(=O)NC2CC2)c1)NCC1CN(Cc2ccc(Cl)c(Cl)c2)CCO1 (stereo not drawn) [Example 53, N-Cyclopropyl-3-[2-({[(3,4-dichlorobenzyl)morpolin-2-yl]methyl}amino)-2-oxoethyl]benzamide] | – | 0.00407 µM
C[C@H]1CO[C@H](CNC(=O)Cc2ccc(Cl)cc2)CN1Cc1ccc(Cl)c(Cl)c1 (relative stereo) [Example 27, 2-(4-Chlorophenyl)-N-{[(trans)-4-(3,4-dichlorobenzyl)-5-methylmorpholin-2-yl]methyl}acetamide] | 7.39 | –
CN(C)S(=O)(=O)c1ccc(CC(=O)NCC2CN(Cc3ccc(Cl)c(Cl)c3)CCO2)cc1 (stereo not drawn) [Example 7, N-{[4-(3,4-Dichlorobenzyl)morpholin-2-yl]methyl}-2-{4-[(dimethylamino)sulfonyl]phenyl}acetamide salt with formic acid (1:1)] | – | 0.0151 µM
COc1ccc2[nH]c(C)c(CC(=O)NCC3CN(Cc4ccc(Cl)c(Cl)c4)CCO3)c2c1 (stereo not drawn) [Example 31, N-{[4-(3,4-Dichlorobenzyl)morpholin-2-yl]methyl}-2-(5-methoxy-2-methyl-1H-indol-3-yl)acetamide] | – | 0.513 µM
CS(=O)(=O)Nc1cccc(CC(=O)NC[C@H]2CN(Cc3ccc(Cl)s3)CCO2)c1 [Example 49, N-({(2S)-4-[(5-Chlorothien-2-yl)methyl]morpholin-2-yl}methyl)-2-{3-[(methylsulfonyl)amino]phenyl]acetamide] | 8.07 | –
O=C(Cc1csc(-c2cnccn2)n1)NCC1CN(Cc2ccc(Cl)c(Cl)c2)CCO1 (stereo not drawn) [Example 37, N-{[4-(3,4-Dichlorobenzyl)morpholin-2-yl]methyl}-2-(2-pyrazin-2-yl-1,3-thiazol-4-yi)acetamide] | 7.97 | –
Cc1oc(-c2ccccc2)nc1CC(=O)NC[C@H]1CN(Cc2ccc(Cl)c(Cl)c2)CCO1 [Example 54, N-{[(2S)-4-(3,4-Dichlorobenzyl)morpholin-2-yl]methyl}-2-(5-methyl-2-phenyl-1,3-oxazol-4-yl)acetamide] | 7.96 | 0.024 µM
Cc1oc(-c2ccc(F)cc2)nc1CC(=O)NCC1CN(Cc2ccc(Cl)c(Cl)c2)CCO1 (stereo not drawn) [Example 41, N-{[4-(3,4-Dichlorobenzyl)morpholin-2-yl]methyl}-2-[2-(4-fluorophenyl)-5-methyl-1,3-oxazol-4-yl]acetamide] | 7.99 | –
CS(=O)(=O)c1ccc(CC(=O)NC[C@H]2CN(Cc3ccc(Cl)c(Cl)c3)CCO2)cc1 (single isomer, unassigned) [Example 39] | 8.31 | –
O=C(Cn1nnc(-c2ccccc2)n1)NC[C@H]1CN(Cc2ccc(Cl)c(Cl)c2)CCO1 [Example 44] | – | 0.00676 µM
Cc1nn(CC(=O)NCC2CN(Cc3ccc(Cl)c(Cl)c3)CCO2)c(C)c1Br (stereo not drawn) [Example 35] | – | 0.155 µM
NS(=O)(=O)c1cccc(CC(=O)NC[C@H]2CN(Cc3ccc(Cl)c(Cl)c3)CCO2)c1 [Example 162] | 8.2 | 0.0126 µM
CS(=O)(=O)c1ccc(CC(=O)NCC2CN(Cc3ccc(Cl)c(Cl)c3)CCO2)cc1.O=CO (stereo not drawn) [Example 2, N-{[4-(3,4-Dichlorobenzyl)morpholin-2-yl]methyl}-2-[4-(methylsulfonyl)phenyl]acetamide salt with formic acid (1:1)] | 6.51 | –
Cc1oc(-c2ccccc2)nc1CC(=O)NC[C@@H]1CN(Cc2ccc(Cl)c(Cl)c2)CCO1 [Example 55, N-{[(2R)-4-(3,4-Dichlorobenzyl)morpholin-2-yl]methyl}-2-(5-methyl-2-phenyl-1,3-oxazol-4-yl)acetamide] | – | 0.398 µM
C[C@H]1CO[C@H](CNC(=O)Cc2ccccc2)CN1Cc1ccc(Cl)c(Cl)c1 (relative stereo) [Example 25, N-{[(trans)4-(3,4-Dichlorobenzyl)-5-methylmorpholin-2-yl]methyl}-2-phenylacetamide] | – | 0.0603 µM

Other lines, results leading:

CCR-3 Eosinophil Chemotaxis Assay (fpKi) (eosinophil chemotaxis) | IC50 (CCR-3) | SMILES
7.15 | – | O=C(Cc1cccc(F)c1)NCC1CN(Cc2ccc(Cl)c(Cl)c2)CCO1 (stereo not drawn) [Example 3, N-{[4-(3,4-Dichlorobenzyl)morpholin-2-yl]methyl}-2-(3-fluorophenyl)acetamide]
– | 0.24 µM | O=C(Cc1cc(Cl)ccc1Cl)NCC1CN(Cc2ccc(Cl)c(Cl)c2)CCO1 (stereo not drawn) [Example 13, N-{[4-(3,4-Dichlorobenzyl)morpholin-2-yl]methyl}-2-(2,5-dichlorophenyl)acetamide]
– | 0.1 µM | O=C(Cc1ccco1)NCC1CN(Cc2ccc(Cl)c(Cl)c2)CCO1 (stereo not drawn) [Example 38, N-{[4-(3,4-Dichlorobenzyl)morpholin-2-yl]methyl}-2-(2-furyl)acetamide]
– | 0.138 µM | O=C(Cc1ccc(F)c(F)c1)NCC1CN(Cc2ccc(Cl)c(Cl)c2)CCO1 (stereo not drawn) [Example 6, N-{[4-(3,4-Dichlorobenzyl)morpholin-2-yl]methyl}-2-(3,4-difluorophenyl)acetamide]
7.32 | – | O=C(Cc1ccsc1)NCC1CN(Cc2ccc(Cl)c(Cl)c2)CCO1 (stereo not drawn) [Example 32, N-{[4-(3,4-Dichlorobenzyl)morpholin-2-yl]methyl}-2-thien-3-ylacetamide]
– | 0.0776 µM | CSc1ccc(CC(=O)NCC2CN(Cc3ccc(Cl)c(Cl)c3)CCO2)cc1 (stereo not drawn) [Example 5, N-{[4-(3,4-Dichlorobenzyl)morpholin-2-yl]methyl}-2-[4-(methylthio)phenyl]acetamide]
– | 0.832 µM | Cc1cc(F)ccc1CC(=O)NCC1CN(Cc2ccc(Cl)c(Cl)c2)CCO1 (stereo not drawn) [Example 19, N-{[4-(3,4-Dichlorobenzyl)morpholin-2-yl]methyl}-2-(4-fluoro-2-methylphenyl)acetamide]
– | 0.11 µM | COc1ccc(CC(=O)NCC2CN(Cc3ccc(Cl)c(Cl)c3)CCO2)cc1 (stereo not drawn) [Example 22, N-{[4-(3,4-Dichlorobenzyl)morpholin-2-yl]methyl}-2-(4-methoxyphenyl)acetamide]
– | 0.158 µM | NC(=O)c1ccc(CC(=O)NCC2CN(Cc3ccc(Cl)c(Cl)c3)CCO2)cc1 (stereo not drawn) [Example 10, 4-[2-({[4-(3,4Dichlorobenzyl)morpholin-2-yl]methyl}amino)-2-oxoethyl]benzamide]
– | 0.339 µM | O=C(Cc1ccc(C(F)(F)F)cc1)NCC1CN(Cc2ccc(Cl)c(Cl)c2)CCO1 (stereo not drawn) [Example 14]
– | 0.145 µM | O=C(Cc1cccc(Cl)c1)NCC1CN(Cc2ccc(Cl)c(Cl)c2)CCO1 (stereo not drawn) [Example 8, 2-(3-Chlorophenyl)-N-{[4-(3,4-dichlorobenzyl)morpholin-2-yl]methyl}acetamide]
